Data set [1] concerns Lu1. The experiment in a line: Cytotoxicity against human Lu1 cells. The data set is classed as functional, cell-based.
Data set [2] relates to Priestia megaterium. The experiment in a line: Antibacterial activity against Bacillus megaterium at 50 ug/disk. The data set is classed as functional.
In data set [3] the test system is Artemia salina. Description: (§1) Toxicity in Artemia salina at 0.5 mg/mL after 48 hrs. The conditions noted are these: in vivo, 48 h. It counts as organism-based.
Data set [4] relates to [Chlorella] fusca. The experiment in a line: Antialgal activity against Chlorella fusca at 50 ug/disk. It counts as functional. The conditions noted are these: Scenedesmus fuscus; for zone of inhibition at 50 µg/disc: read-out: IZ.
The test system of data set [5] is KB. Description: Cytotoxicity against human KB cells. It counts as functional, cell-based.
For data set [6], the system named is Aspergillus pseudoglaucus. Description: Antifungal activity against Eurotium repens assessed as few colonies of test organism growing within inhibition zone at 50 ug/disk. It counts as functional. The conditions noted are these: read-out: IZ.
Data set [7] relates to ZR-75-1. Description: Cytotoxicity against human ZR-75-1 cells. The data set is classed as functional, cell-based.
In data set [8] the test system is Microbotryum violaceum. Description: Antifungal activity against Microbotryum violaceae assessed as few colonies of test organism growing within inhibition zone at 50 ug/disk. It counts as functional. Conditions: read-out: IZ.
The test system of data set [9] is Escherichia coli. The experiment in a line: Antibacterial activity against Escherichia coli at 50 ug/disk. The data set is classed as functional.
In data set [10] the test system is Aspergillus pseudoglaucus. The experiment in a line: Antifungal activity against Eurotium repens at 50 ug/disk. The data set is classed as functional.
For data set [11], the system named is Microbotryum violaceum. The experiment in a line: Antifungal activity against Microbotryum violaceae at 50 ug/disk. It counts as functional.
Data set [12] concerns Fusarium oxysporum. Description: Antifungal activity against Fusarium oxysporum at 50 ug/disk. It counts as functional.
The test system of data set [13] is Mycotypha microspora. Description: Antifungal activity against Mycotypha microspora at 50 ug/disk. The data set is classed as functional.
Data set [14] in a line: as §1. Conditions: in vivo, read-out: Activity. The data set is classed as organism-based.
Data set [15] concerns [Chlorella] fusca. Description: Antialgal activity against Chlorella fusca assessed as few colonies of test organism growing within inhibition zone at 50 ug/disk. The conditions noted are these: Scenedesmus fuscus; read-out: IZ. It counts as functional.
For data set [16], the system named is Caenorhabditis elegans. Description: Nematicidal activity against Caenorhabditis elegans. It counts as functional, organism-based.
Data set [17] addresses Human immunodeficiency virus type 1 reverse transcriptase (Human immunodeficiency virus 1) (UniProt Q72547). Description: Inhibition of HIV1 reverse transcriptase.
Data set [18] has as its target Tyrosine-protein kinase Lck (Homo sapiens) (UniProt P06239). The experiment in a line: Inhibition of p56lck.
Data set [19] relates to HeLa. Description: Cytotoxicity against human HeLa cells. It counts as functional, cell-based.
A short description of data set [20]: Antibacterial activity against Escherichia coli assessed as few colonies of test organism growing within inhibition zone at 50 ug/disk. The conditions noted are these: read-out: IZ.

Converted amounts (≈) assume the structure as drawn. The source made the active and inactive calls. No cut-off for these calls is given here. Where only a bound is given, the exact number is not on record here.

Sequence of Tyrosine-protein kinase Lck (Homo sapiens) (P06239 2-509 limits assumed): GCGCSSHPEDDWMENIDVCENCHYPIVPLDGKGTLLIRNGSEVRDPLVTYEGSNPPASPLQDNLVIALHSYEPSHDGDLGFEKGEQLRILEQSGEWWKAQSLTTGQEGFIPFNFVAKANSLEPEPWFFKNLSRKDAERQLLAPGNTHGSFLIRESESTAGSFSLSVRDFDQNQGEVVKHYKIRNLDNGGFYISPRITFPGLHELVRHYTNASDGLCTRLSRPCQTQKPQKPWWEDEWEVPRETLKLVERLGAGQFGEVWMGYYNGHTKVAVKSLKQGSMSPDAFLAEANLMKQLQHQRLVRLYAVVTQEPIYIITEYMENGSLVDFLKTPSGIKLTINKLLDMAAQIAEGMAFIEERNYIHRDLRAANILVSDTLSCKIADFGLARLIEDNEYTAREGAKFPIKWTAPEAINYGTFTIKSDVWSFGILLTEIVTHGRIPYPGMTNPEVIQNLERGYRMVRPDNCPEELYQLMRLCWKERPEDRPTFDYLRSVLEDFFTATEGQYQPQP

For the compound `CC(=O)O[C@@H](C=C(C)C)C/C(C)=C1\CC[C@](C)(Br)[C@@H](Cl)C1`, the IC50 in data set [1], in data set [5] and in data set [7] was above 25 µg/mL each time. In addition, the outcome in data set [2], in data set [4] and in data set [9] was inactive. Besides, the Activity result in data set [3] was “Not Active”. In addition, the zone of inhibition at 50 µg/disc in [6] came out at 2 mm; in data set [8] it was 1 mm.

For the compound `C=C[C@@](C)(O)CC[C@H]1[C@](C)(CC[C@H](Br)C(C)(C)Cl)[C@@H]2CC[C@@]1(C)O2` [DACTYLOMELOL], the result in data set [10], in data set [2], in data set [4], in [11], in data set [12] and in [13] was inactive. Besides, in [9], the result was inactive. In data set [3], the Activity result was “Not Active”.

Take `C=CC(C)(O)CC[C@@H]1C(=C)CC[C@@H]2C(C)(C)[C@H](Br)CC[C@@]12C` (stereo not given in full) [ISOPINNATOL B]: the result in [10], in data set [2], in [4], in data set [11], in data set [12] and in data set [9] was inactive. The IC50 in data set [1], in data set [5] and in data set [7] was above 25 µg/mL in each case. Further, in data set [3], the result was Active.

Regarding `CC1(C)O[C@](C)([C@H]2CC[C@](C)(Cl)[C@@H](Br)C2)CC[C@H]1Br` [CAESPITANE], the result in data set [10], in data set [2], in [11], in data set [12] and in data set [9] was inactive. The IC50 in data set [1], in data set [5] and in [7] was above 25 µg/mL each time. For the same compound, the mortality at 48 h, 0.5 mg/mL in data set [14] was 40%. Moreover, in [15], the zone of inhibition at 50 µg/disc turned out to be 1 mm.

Regarding `CC1(C)O[C@](C)([C@H]2CC[C@](C)(Cl)[C@@H](Br)C2)[C@H](O)C[C@H]1Br` [CAESPITOL], the outcome in [10], in data set [2], in [11], in data set [17], in [12] and in data set [18] was inactive. Besides, in [9], the result was inactive. Besides, the IC50 in data set [1] is above 25 µg/mL; in data set [5], above 25 µg/mL; in data set [7] it was above 25 µg/mL; in data set [19] it was 100 µg/mL (≈ 231 µM). In data set [14], the mortality at 48 h, 0.5 mg/mL was determined as 70%. In [16], the result was Active. For the same compound, the zone of inhibition at 50 µg/disc in [15] is 3 mm.

With `CC1(C)C=CC(=O)[C@@](C)([C@H]2CC[C@](C)(Cl)[C@@H](Br)C2)O1` [CAESSPITENONE], the result in data set [10], in data set [2], in data set [4], in data set [11], in data set [12] and in data set [13] was inactive. Moreover, the outcome in [9] was inactive. The Activity entry in [3] is on record as “Not Active”.

Regarding `Clc1ccc(COC(Cn2ccnc2)c2ccc(Cl)cc2Cl)c(Cl)c1` (stereo not given) [MICONAZOLE], the zone of inhibition at 50 µg/disc in data set [10] (read-out: IZ) stood at 3 mm; in data set [2] (read-out: IZ), 10 mm; in [4] it was 4 mm; in [11] (read-out: IZ) it was 20 mm; in data set [12] (read-out: IZ) it was 32 mm; in [13] (read-out: IZ), 5 mm. Besides, the zone of inhibition at 50 µg/disc in data set [9] (read-out: IZ) was determined as 1 mm.

`C=C1C[C@H](OC(C)=O)[C@H](Br)C(C)(C)[C@@]12CC[C@](C)(Br)[C@@H](Cl)C2`: the half-maximal inhibitory concentration (IC50) in data set [1], in data set [5] and in data set [7] was above 25 µg/mL each time. For the same compound, the result in data set [2], in data set [4] and in data set [9] was inactive. For the same compound, in data set [3], the Activity entry is reported as “Not Active”. Also, the zone of inhibition at 50 µg/disc in data set [6] amounted to 1 mm.

Regarding `C=C1C[C@H](O)[C@H](Br)C(C)(C)[C@@]12CC[C@](C)(Br)[C@@H](Cl)C2`, the “inhibition zone (IZ)” value in [10], in data set [4], in data set [11], in data set [12], in [13] and in [9] was “inactive” each time. Further, in data set [2], the outcome was inactive. In addition, the “inhibition zone (Toxicity)” value in [3] is listed as “Not Active”. In data set [19], this compound had a half-maximal inhibitory concentration (IC50) of 10 µg/mL (≈ 24.1 µM).

As to `CC(=O)O[C@@H]1C[C@@H](Br)C(C)(C)O[C@]1(C)[C@H]1CC[C@](C)(Cl)[C@@H](Br)C1`, the outcome in [10], in [2], in data set [4], in data set [11], in data set [12] and in data set [13] was inactive. Also, the outcome in [9] was inactive. For the same compound, the Activity entry in data set [3] is reported as “Not Active”.

With `Cc1cc([C@H]2CC[C@](C)(Cl)[C@@H](Br)C2)co1` [FUROCAESPITANE], the outcome in data set [10], in data set [2], in data set [4], in data set [11], in data set [12] and in data set [13] was inactive. In addition, the result in data set [9] was inactive. In addition, the Activity result in data set [3] is recorded as “Not Active”.

Take `CCOC(=O)c1ccccc1C(=O)OCC` [DIETHYL PHTHALATE]: the zone of inhibition at 50 µg/disc in [4] was 13 mm.

Consider `C[C@@]1(Cl)C[C@@](C)(Br)[C@H](/C=C/Cl)C[C@@H]1Br`, for which the half-maximal inhibitory concentration (IC50) in data set [1] was above 25 µg/mL; in data set [5], above 25 µg/mL; in data set [7], above 25 µg/mL; in [19], 1 µg/mL (≈ 2.74 µM). Also, the zone of inhibition at 50 µg/disc in data set [20], in data set [6] and in data set [8] was 1 mm throughout. In addition, the mortality at 48 h, 0.5 mg/mL in data set [14] amounted to 90%. For the same compound, the outcome in data set [4] was inactive.

For the compound `CC1=C([C@H]2CC[C@](C)(Cl)[C@@H](Br)C2)C[C@@H](Br)C(C)(C)O1` [LAUCAPYRANOID A], the outcome in data set [10], in data set [2], in [4], in [11], in data set [12] and in data set [13] was inactive. Besides, the result in [9] was inactive. Besides, the Activity result in [3] is reported as “Not Active”.

Consider `C=C[C@]1(C)CC[C@@H](Br)[C@](C)(CC[C@@H]2[C@@H](C)[C@]3(C)CC[C@@]2(C)O3)O1` [DACTYLOPYRANOID], for which the outcome in data set [10], in data set [2], in data set [4], in data set [11], in [12] and in data set [13] was inactive. In data set [9], the result was inactive. The Activity entry in [3] is given as “Not Active”.

For the origin of these results see ChEMBL document CHEMBL1142640, “New natural product isolation and comparison of the secondary metabolite content of three distinct samples of the sea hare Aplysia dactylomela from tenerife” (J Nat Prod, 2000).
